Results published in patent publication US7144862B2, “Orally administered peptides to ameliorate atherosclerosis” (The Regents of the University of California, priority 2000, dated 2006).

Key:
[1] = tested on: C57BL/6J mice fed an atherogenic diet; assay: Aortic lesion formation, daily intraperitoneal injection for 16 weeks, atherogenic diet; assay type: in vivo, mouse; conditions: 5F 20 μg or MoAI 50 μg daily i.p.
Description: The livers were removed and weighed.
Histological evaluations were performed according to the method of Paigen et al. (Paigen et al. (1990) Arteriosclerosis 10: 316–323) with some modifications. Briefly, hearts were fixed for at least one week in the phosphate-buffered formaldehyde solution. After removing the lower ⅔ of the hearts, the remaining tissue was frozen in OCT medium (Tissue-Tek, Miles Inc., Elkhart, Ind.) and sectioned in a cryostat at −20° C. Alternate 20 μm sections were saved on slides, and observed for the beginning of the aortic root. Sections were then collected for an additional 600 μm, or until the aortic cross-section was rounded and the valve cusps were no longer evident. Slides were stained with Oil Red O, and counterstained with hematoxylin. Stained lesion cross-sectional areas were measured in consecutive slides 80 μm apart by image analysis (SigmaScan Pro, SPSS Scientific, Chicago, Ill.), and the average lesion area was determined for each aortic sinus over the 400 μm length (five slides) providing the greatest mean lesion area.

[2] = Antibody detection by indirect ELISA after 16 weeks of daily injection; assay type: in vivo, mouse; conditions: plasma at conclusion of 16-week injection period
Description: To determine whether daily injections of peptides elicited any immune response in mice, indirect ELISA titration (Engvall (1980) Meth. Enzymol. 70:419–439) was carried out with plasma taken from mice at the time of organ collection (following sixteen weeks of daily injection). Plates were coated with the injected peptides or MoAI (10 μg/ml). Plates were incubated overnight. After thorough washing with borate buffered saline (pH 8.2) containing 0.05% Tween 20, and blocking with buffer (0.1% gelatin and 0.1% BSA in borate buffer) for 1 h, 200 μl of the diluted mouse plasma (1:100 dilution) samples were serially diluted 1:1 with borate-buffered saline. Biotinylated goat antibody to mouse IgG (0.1 μg/ml) was then added to the wells and the plates were treated with SA-HRP (Streptavidin-horse radish peroxidase) for an hour and developed with ABTS and peroxide as substrate. The plates were incubated overnight at room temperature after every addition of antigen/antibody and washed thoroughly with borate buffered saline (pH 8.2) containing 0.05% Tween 20, and blocked with buffer (0.1% gelatin and 0.1% BSA in borate buffer) for 1 h before the next addition.

[3] = DSC, chain melting transition of DMPC; assay type: physicochemical; conditions: DMPC/peptide 100:1 (mol/mol)
Description: (§1) A known amount of phospholipid was dissolved in chloroform. For one set of samples, peptide was dissolved in methanol and added to a solution of DiPoPE in chloroforn/methanol (2:1, v:v). For both, pure lipid samples and the organic solutions of lipid and peptide, solvent was removed under a slow stream of nitrogen. Residual solvent was removed under vacuum. […] For DMPC, four consecutive scans with a 60 minute equilibration time between scans were taken. DSC thermograms were analyzed using the software provided by MicroCal Inc., Amherst, Mass., and Origin, version 5.0.
The effect of these 18A analogues on the chain melting transition of multilamellar vesicles of DMPC was studied by DSC using peptide-lipid mixtures at 100:1 lipid/peptide molar ratio.

[4] = DSC, bilayer to hexagonal phase transition of DiPoPE; assay type: physicochemical; conditions: heating scan rate 37°/h
Description: as §1
In the current study we prepared the peptide-lipid mixtures in two ways. One was by adding the peptide in organic solvent to the lipid in organic solvent followed by depositing the material as a film and subsequently hydrating with buffer. In the other method, the peptide and lipid were mixed after each was hydrated separately. If the mixture comes to equilibrium prior to the DSC analysis, it should not matter how the peptide and lipid are originally mixed. However, membrane systems can equilibrate slowly, in which case there may be more peptide in the lipid when it was incorporated at high concentrations into the lipid film.

[5] = tested on: human artery wall cell cocultures; assay: LDL-induced monocyte chemotactic activity with the homologous series of peptides (Example 3); assay type: cell-based; conditions: peptide at 100 μg/ml, LDL 250 μg protein/ml, 8 h
Description: Microtitre plates were treated with 0.1% gelatin at 37° C. overnight. HASMC were added at a confluent density of 1×10^5 cells/cm^2. […] HAEC were subsequently added at 2×10^5 cells/cm^2 and were allowed to grow, forming a complete monolayer of confluent HAEC in two days. In all experiments, HAEC and autologous HASMC (from the same donor) were used at passage levels of four to six. […] The cocultures were treated with native LDL(250 μg protein/ml) or presence of HDL (350 μg protein/ml) or peptides for 8 h.

[6] = mouse, in vivo
Description: The 5F peptide, MoAI, and human apo A-I were labeled with ^125I by the method of Bilheimer et al. (1972) Biochim. Biophys. Acta 260: 212–221. Mice were placed on a modified Thomas-Hartroft atherogenic diet (#TD88051; Teklad, Madison, Wis.) for four weeks at which time daily intraperitoneal injections of peptide or protein dissolved in 200 μl phosphate-buffered saline (PBS) were begun. Animals injected with MoAI or human apo A-I received 50 μg per animal; those injected with 5F received 20 μg. Animals were not fasted for the kinetic studies and blood samples were taken under xylazine:ketamine anesthesia from the retro-orbital sinus at 15, 30, and 45 minutes, and 1, 1.5, 2, 3, 4, 6, 8, 12, and 24 hours following injection. Each animal provided three blood samples at different time points (all retro-orbital and alternating eyes), and at least three samples were collected (from different animals) at each time point. Samples were collected into heparinized capillary tubes, then placed in microcentrifuge tubes; the plasma was separated by centrifugation. Duplicate 10 μl aliquots of each sample were taken for radioactivity determination, using gamma counting (Cobra; Packard Instruments, Downers Grove, Ill.) for 10 minutes per sample. Total plasma volume was calculated as 4.2% body weight. Each sample was expressed as percent of injected CPM in total plasma. Free ^125I was determined by trichloroacetic acid (TCA) precipitation (1 ml of 10% TCA per 10 μl plasma sample). Fitting to the kinetic model was done using all data points, rather than averages at each time point (PKAnalyst, MicroMath Scientific Software, Salt Lake City, Utah).
Treatment groups were compared by two-tailed t-tests or one way analysis of variance (where the data were normally distributed), or by one way analysis of variance on ranks (SigmaStat; SPSS Science, Chicago, Ill.). Kinetics of peptide or protein turnover were analyzed by fitting to a first order one-compartment kinetic model assuming non-equal input and output rates (PKAnalyst; MicroMath Scientific Software, Salt Lake City, Utah).

[7] = mouse, in vivo, ip
Description: (§2) Mice were acquired at six weeks of age, and randomized into groups of 20, except that a negative control group of 10 received no treatments and was given standard rodent chow. At eight weeks of age, the treatment groups were placed on a modified Thomas-Hartroft atherogenic diet (#TD88051; Teklad, Madison, Wis.), and injections were begun. […] Animals were injected intraperitoneally daily for 16 weeks, including weekends and holidays.
(§3) At the end of the study (week 16), at the last bleeding, the heart and the liver were excised. […] The livers were removed and weighed.

[8] = Survival, toxicity, body and liver weights after 16 weeks of injection
Description: as §2, §3

[9] = after 16 weeks, atherogenic diet, daily i.p., mean ± SEM

## Ac-DWLKAFYDKVFEKFKEFF-NH2 [Peptide 5F, Ac-D-W-L-K-A-F-Y-D-K-V-F-E-K-F-K-E-F-F-NH2]
[1]
  mean lesion cross-sectional area compared with PBS-injected animals: significantly lower mean lesion area
[2]
  antibodies against the injected material: No antibodies were detected
[3]; 1.5 mM DMPC, chain melting transition temperature
  TCM(° C.): 23.2 °C
[3]; enthalpy of the transition
  ΔHCM (kcals/mol): 4.9 kcals/mol
[3]; width at half maximum of the transition
  ΔT1/2 (° C.): 0.5 °C
[4]
  shift in TH of DiPoPE with mol fraction of peptide: linear increase in TH
[5]
  inhibition of LDL-induced monocyte chemotaxis: significant and similar inhibition
[6]; C57BL/6J, ip
  T½: 6.22 h
[6]
  Max. % in plasma: 14.29%
[7]
  toxicity: No toxicity
[8]; [9]
  Body Weight: 21.60 ± 0.28 g
  Liver Weight: 1.61 ± 0.04 g
  Liver: Body (percentage): 7.46 ± 0.23%
[8]; during the prolonged diet studies, groups of 20
  mice died from unexplained causes: one
